The source of these data is PMC12389581, “Inhibition of Human Coronavirus 229E by Lactoferrin-Derived Peptidomimetics” (Pharmaceutics, 2025).

In assay [1] the target is T1, HCoV-229E spike protein (Human coronavirus 229E, UniProt P15423).
T1 construct: purchased Acrobiosystems SPN-H52H3
T1 sequence (P15423 16-1173): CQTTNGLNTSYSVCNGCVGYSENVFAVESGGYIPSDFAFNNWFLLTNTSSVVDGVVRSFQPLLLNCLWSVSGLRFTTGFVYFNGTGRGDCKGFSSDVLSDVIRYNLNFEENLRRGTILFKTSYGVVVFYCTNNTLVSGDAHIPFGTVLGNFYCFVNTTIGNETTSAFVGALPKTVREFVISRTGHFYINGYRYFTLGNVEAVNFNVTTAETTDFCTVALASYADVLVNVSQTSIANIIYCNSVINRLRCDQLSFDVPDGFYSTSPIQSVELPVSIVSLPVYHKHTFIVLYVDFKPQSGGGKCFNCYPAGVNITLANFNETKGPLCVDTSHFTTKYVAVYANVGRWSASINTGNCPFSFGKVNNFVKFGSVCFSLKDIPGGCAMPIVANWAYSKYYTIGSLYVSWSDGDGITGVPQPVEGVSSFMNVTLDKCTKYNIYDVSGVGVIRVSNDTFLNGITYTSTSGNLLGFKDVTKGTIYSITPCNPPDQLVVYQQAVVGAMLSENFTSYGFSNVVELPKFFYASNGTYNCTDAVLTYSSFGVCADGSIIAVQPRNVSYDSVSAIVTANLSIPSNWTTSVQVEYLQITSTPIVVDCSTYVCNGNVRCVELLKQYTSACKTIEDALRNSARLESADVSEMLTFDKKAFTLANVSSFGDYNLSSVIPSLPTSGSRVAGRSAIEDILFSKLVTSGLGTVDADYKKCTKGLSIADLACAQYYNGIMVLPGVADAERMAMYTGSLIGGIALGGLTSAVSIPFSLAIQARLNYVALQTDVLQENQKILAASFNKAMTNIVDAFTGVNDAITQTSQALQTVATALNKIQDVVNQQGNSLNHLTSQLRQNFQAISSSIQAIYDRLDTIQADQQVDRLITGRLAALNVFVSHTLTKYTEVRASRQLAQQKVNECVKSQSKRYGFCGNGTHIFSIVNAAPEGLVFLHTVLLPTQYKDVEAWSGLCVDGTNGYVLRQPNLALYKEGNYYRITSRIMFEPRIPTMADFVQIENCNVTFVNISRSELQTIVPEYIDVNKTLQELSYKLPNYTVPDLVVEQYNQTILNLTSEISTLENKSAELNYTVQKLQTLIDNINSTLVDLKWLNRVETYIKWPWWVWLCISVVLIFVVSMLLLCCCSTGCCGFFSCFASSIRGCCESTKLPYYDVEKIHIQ
The assay can be described thus: Microscale thermophoresis (MST) direct binding. As to conditions: NT647-labeled spike protein, PBS, triplicate. Background: In MST a laser heats a spot of the sample, and binding alters the fluorescence response.

In assay [2] the target is T1, HCoV-229E spike protein. The assay can be described thus: Surface plasmon resonance (SPR) direct binding. Conditions: spike immobilized on CM5 chip, HBS-P+ buffer, 25 °C, 1:1 model, koff/kon. Background: In SPR one partner is held on a chip, and binding of the other changes the refractive index at the surface.
The target in assay [3] is T1, HCoV-229E spike protein. The assay can be described thus: Nanoscale differential scanning fluorometry (nanoDSF) thermal shift. The assay is classed as binding. As to conditions: for ∆Tm: 200 μM compound, 2 μM spike protein, PBS pH 7.4; for Tm: 200 μM peptide, 2 µM protein, ramp 20-95 °C. A general note: In DSF a fluorescence change marks the thermal transition of the protein.

For another assay, the system named is Influenza A H1N1 Virus. Set-up: method as in earlier work. As to conditions: concentration that reduced the cytopathic effect by 50%; cited from earlier work.
The mark [4] stands for this setting: concentration that reduced the cytopathic effect by 50%, virus pre-incubated with compound 1 h at 4 °C, compound present 72 h, MRC-5 cells, mean ± standard error of three experiments.

Where “and” joins values, the source holds several entries; their conditions need not be identical. Equal entries are not always repeated. Where two headings read alike, the source gives them in different places. Non-standard residues stand in square brackets, D forms with d. Residues, ends and D or L forms follow the SMILES beside them. NMeH = CN[C@@H](Cc1c[nH]cn1)C(=O)O; Gly(N-CH2CH2OH) = O=C(O)CNCCO; NMeL = CN[C@@H](CC(C)C)C(=O)O A value given as a limit tells only on which side of the number the result lay.

What is called EC50 is the midpoint of the concentration-response curve. What is called Kd is the equilibrium constant for the complex coming apart. On to `CC(=O)N[C@@H](CO)C(=O)N[C@@H](CC(C)C)C(=O)N[C@@H](CC(=O)O)C(=O)N[C@@H](CS)C(N)=O` [Compound 1, SLDC] (Ac-SLDC-NH2), for which the EC50 in the assay on 229E Coronavirus (setting [4]) turned out to be 50 ± 0.4 nM. The Kd on HCoV-229E spike protein [1] is 4920 ± 700 nM; at HCoV-229E spike protein [2], > 50000 nM.

`CC(=O)N[C@@H](CO)C(=O)N[C@@H](CCCCN)C(=O)N[C@@H](Cc1c[nH]cn1)C(=O)N[C@@H](CO)C(N)=O` [Compound 2, SKHS] (Ac-SKHS-NH2): in the assay with 229E Coronavirus (setting [4]), the EC50 came to 500 ± 2 nM. In addition, the Kd on HCoV-229E spike protein [1] stood at 5120 ± 600 nM; on HCoV-229E spike protein [2], 41400 ± 870 nM.

As usually defined, the Tm is the temperature at which the thermal transition is half complete. Turning to `CC(=O)N[C@@H](CO)C(=O)N[C@@H](CCCCN)C(=O)N(C)[C@@H](Cc1c[nH]cn1)C(=O)N[C@@H](CO)C(N)=O` [Compound 3, SK(N-Me)HS] (Ac-SK[NMeH]S-NH2), the “∆Tm” value on HCoV-229E spike protein [3] came to 0.3 °C. Further, the Tm at HCoV-229E spike protein [3] turned out to be 81.9 °C. The EC50 with 229E Coronavirus (setting [4]) is ~0.031 nM and 0.031 nM; in the assay on 229E Coronavirus (read-out: EC50, Infection Cycle, compound present during adsorption and entire replication cycle (1 h + 72 h)) it was 0.043 nM; with Influenza A H1N1 Virus, 0.142 ± 0.002 nM. For the same compound, the Kd on HCoV-229E spike protein [1] is 390 ± 50 nM; at HCoV-229E spike protein [2], 416 ± 442 nM.

Regarding `CC(=O)N[C@@H](CO)C(=O)N(C)[C@@H](CC(C)C)C(=O)N[C@@H](CC(=O)O)C(=O)N[C@@H](CS)C(N)=O` [Compound 4, S(N-Me)LDC] (Ac-S[NMeL]DC-NH2), at HCoV-229E spike protein [3], the “∆Tm” value was 0.1 °C and the Tm is 81.7 °C. Also, on HCoV-229E spike protein [1], the Kd amounted to 2600 ± 1300 nM. The Kd on HCoV-229E spike protein [2] is 1150 ± 182 nM. In addition, the EC50 in the assay on Influenza A H1N1 Virus was 0.085 ± 0.0004 nM.

Consider `CC(=O)N[C@@H](CO)C(=O)N[C@@H](CCCCN)C(=O)N[C@@H](Cc1c[nH]cn1)C(=O)N(CCO)CC(N)=O` [Compound 6, SKHNhS] (Ac-SKH[Gly(N-CH2CH2OH)]-NH2), for which, at HCoV-229E spike protein [3], the “∆Tm” value is 0.4 °C and the Tm turned out to be 82.0 °C. The same compound came in with a Kd at HCoV-229E spike protein [1] of 11000 ± 800 nM. The compound further showed a Kd at HCoV-229E spike protein [2] of 1510 ± 465 nM. Also, in the assay on Influenza A H1N1 Virus, the EC50 is 0.5 ± 0.004 nM.
